Assays:
[1] = biological target: T1, STE20-related kinase adapter protein alpha (Homo sapiens) (UniProt Q7RTN6); assay: Inhibition of STLK5 conserved Lys2 (SVKASHILISVDGK) in human PBMC at 1 uM
T1 sequence (whole entry): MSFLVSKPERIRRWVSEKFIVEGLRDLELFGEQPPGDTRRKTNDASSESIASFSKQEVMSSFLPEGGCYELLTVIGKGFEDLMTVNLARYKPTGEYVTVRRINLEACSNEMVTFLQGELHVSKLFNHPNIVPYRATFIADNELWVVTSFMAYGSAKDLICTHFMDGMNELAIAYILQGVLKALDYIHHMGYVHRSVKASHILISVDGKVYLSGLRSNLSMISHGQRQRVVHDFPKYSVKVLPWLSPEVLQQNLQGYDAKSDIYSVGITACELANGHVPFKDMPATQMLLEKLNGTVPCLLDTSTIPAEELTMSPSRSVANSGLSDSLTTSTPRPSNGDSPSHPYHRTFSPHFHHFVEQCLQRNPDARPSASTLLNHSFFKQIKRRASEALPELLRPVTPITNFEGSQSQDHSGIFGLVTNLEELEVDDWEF

[2] = biological target: Glycogen synthase kinase-3 beta (Homo sapiens) (UniProt P49841); assay: Inhibition of GSK3B conserved Lys2 (DIKPQNLLLDPDTAVLK) in human PBMC at 0.1 uM
[3] = biological target: Cyclin-dependent kinase 2 (Homo sapiens) (UniProt P24941); assay: Inhibition of CDK2 labeling at conserved Lys1 (LTGEVVALKK) in human PBMC at 1 uM
[4] = biological target: Serine/threonine-protein kinase Chk2 (Homo sapiens) (UniProt O96017); assay: Inhibition of CHK2 labeling at conserved Lys2 (DLKPENVLLSSQEEDCLIK) in human PBMC at 1 uM
Serine/threonine-protein kinase Chk2 (Homo sapiens), sequence (O96017 whole entry): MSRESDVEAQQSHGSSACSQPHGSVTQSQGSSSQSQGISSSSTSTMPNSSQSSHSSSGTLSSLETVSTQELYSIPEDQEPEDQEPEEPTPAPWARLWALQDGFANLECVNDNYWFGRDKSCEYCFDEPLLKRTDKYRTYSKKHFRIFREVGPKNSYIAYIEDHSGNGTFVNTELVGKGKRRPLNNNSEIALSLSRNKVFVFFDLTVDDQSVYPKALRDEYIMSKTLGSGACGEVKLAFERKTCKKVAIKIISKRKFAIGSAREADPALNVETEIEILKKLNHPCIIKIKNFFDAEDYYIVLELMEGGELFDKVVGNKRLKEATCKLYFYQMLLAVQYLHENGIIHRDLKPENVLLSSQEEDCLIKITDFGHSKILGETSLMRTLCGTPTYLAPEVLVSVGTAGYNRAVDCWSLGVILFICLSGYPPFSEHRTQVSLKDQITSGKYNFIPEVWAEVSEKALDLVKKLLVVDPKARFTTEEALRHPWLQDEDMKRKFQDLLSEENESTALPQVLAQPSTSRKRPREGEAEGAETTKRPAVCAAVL

[5] = biological target: Mitogen-activated protein kinase kinase kinase 1 (Homo sapiens) (UniProt Q13233); assay: Inhibition of MAP3K1 conserved Lys2 (DVKGANLLIDSTGQR) in human PBMC at 0.1 uM
Mitogen-activated protein kinase kinase kinase 1 (Homo sapiens), sequence (Q13233 whole entry): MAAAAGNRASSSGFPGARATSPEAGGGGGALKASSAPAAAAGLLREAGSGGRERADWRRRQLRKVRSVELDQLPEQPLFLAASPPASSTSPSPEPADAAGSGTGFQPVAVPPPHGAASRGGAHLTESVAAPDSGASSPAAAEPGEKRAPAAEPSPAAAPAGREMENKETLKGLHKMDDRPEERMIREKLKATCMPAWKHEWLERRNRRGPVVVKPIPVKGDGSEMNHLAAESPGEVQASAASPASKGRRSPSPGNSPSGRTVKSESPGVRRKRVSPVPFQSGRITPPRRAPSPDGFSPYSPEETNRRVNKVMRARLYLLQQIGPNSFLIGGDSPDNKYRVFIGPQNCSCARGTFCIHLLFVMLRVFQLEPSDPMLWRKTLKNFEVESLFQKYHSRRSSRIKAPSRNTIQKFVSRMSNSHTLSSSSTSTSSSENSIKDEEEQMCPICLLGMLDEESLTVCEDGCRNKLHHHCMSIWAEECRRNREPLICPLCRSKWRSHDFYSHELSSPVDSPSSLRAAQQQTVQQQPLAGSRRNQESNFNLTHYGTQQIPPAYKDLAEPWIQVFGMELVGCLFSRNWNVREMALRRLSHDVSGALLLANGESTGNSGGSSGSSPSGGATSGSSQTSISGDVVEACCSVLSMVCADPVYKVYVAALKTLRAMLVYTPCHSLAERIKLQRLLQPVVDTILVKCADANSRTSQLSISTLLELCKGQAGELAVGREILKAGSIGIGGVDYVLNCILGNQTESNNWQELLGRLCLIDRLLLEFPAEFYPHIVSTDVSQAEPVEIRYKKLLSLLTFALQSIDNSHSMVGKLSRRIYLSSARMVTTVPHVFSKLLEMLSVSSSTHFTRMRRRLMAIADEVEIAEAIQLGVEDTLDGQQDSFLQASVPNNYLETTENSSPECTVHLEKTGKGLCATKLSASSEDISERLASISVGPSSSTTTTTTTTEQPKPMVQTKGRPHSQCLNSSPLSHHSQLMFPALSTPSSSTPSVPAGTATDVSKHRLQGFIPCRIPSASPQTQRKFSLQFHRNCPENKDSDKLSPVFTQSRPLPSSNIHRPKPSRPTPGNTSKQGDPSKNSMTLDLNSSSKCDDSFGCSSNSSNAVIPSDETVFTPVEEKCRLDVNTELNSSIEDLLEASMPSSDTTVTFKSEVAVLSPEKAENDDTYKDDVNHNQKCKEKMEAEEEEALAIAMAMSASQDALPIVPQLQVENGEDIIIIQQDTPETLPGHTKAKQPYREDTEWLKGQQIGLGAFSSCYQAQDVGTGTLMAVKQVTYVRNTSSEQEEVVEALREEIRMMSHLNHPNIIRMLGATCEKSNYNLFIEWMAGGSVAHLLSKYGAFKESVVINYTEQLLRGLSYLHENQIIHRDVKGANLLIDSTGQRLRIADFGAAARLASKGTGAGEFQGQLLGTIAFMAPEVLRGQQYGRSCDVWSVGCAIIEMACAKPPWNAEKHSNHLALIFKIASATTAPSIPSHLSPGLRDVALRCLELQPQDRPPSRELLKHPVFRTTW

[6] = biological target: Calcium/calmodulin-dependent protein kinase type 1D (Homo sapiens) (UniProt Q8IU85); assay: Inhibition of CaMK1d labeling at conserved Lys2 (DLKPENLLYYSQDEESK) in human PBMC at 1 uM
[7] = biological target: Mitogen-activated protein kinase kinase kinase 2 (Homo sapiens) (UniProt Q9Y2U5); assay: Inhibition of MAP3K2 conserved Lys2 (DIKGANILR) in human PBMC at 0.1 uM
Mitogen-activated protein kinase kinase kinase 2 (Homo sapiens), sequence (Q9Y2U5 whole entry): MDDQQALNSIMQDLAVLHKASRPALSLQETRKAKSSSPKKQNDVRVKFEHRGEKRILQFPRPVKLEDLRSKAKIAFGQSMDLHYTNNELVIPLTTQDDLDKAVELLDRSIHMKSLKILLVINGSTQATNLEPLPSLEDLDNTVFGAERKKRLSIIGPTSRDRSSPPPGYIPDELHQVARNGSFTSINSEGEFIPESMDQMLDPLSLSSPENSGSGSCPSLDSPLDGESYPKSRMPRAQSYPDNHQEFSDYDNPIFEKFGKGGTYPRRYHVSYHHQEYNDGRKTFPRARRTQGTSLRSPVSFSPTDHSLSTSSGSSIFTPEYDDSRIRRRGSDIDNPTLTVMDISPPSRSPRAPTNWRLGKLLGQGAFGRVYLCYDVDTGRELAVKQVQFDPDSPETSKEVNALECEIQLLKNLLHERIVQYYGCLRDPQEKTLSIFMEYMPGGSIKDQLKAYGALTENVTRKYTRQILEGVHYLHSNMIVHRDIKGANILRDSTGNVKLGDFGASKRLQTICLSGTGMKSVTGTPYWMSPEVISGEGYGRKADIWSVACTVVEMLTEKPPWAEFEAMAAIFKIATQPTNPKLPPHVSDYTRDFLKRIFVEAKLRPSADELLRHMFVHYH

[8] = biological target: T2, Serine/threonine-protein kinase 4 (Homo sapiens) (UniProt Q13043); assay: Inhibition of MST1 conserved Lys2 (DIKAGNILLNTEGHAK) in human PBMC at 0.1 uM
T2 sequence (whole entry): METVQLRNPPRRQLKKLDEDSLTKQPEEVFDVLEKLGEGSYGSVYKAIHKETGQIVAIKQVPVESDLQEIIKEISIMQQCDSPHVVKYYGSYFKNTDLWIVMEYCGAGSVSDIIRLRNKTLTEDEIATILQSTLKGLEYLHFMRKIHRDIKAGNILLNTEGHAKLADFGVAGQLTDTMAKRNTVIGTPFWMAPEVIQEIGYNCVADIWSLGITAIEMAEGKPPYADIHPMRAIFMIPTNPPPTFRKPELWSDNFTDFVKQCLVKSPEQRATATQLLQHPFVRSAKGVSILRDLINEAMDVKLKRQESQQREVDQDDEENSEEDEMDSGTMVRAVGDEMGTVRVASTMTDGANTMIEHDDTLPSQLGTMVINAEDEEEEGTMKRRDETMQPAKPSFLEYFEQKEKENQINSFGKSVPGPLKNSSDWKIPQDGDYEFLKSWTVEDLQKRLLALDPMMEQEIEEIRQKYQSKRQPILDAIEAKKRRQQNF

[9] = biological target: T3, Inhibitor of nuclear factor kappa-B kinase subunit epsilon (Homo sapiens) (UniProt Q14164); assay: Inhibition of IKKe conserved Lys2 (DIKPGNIMR) in human PBMC at 1 uM
T3 sequence (whole entry): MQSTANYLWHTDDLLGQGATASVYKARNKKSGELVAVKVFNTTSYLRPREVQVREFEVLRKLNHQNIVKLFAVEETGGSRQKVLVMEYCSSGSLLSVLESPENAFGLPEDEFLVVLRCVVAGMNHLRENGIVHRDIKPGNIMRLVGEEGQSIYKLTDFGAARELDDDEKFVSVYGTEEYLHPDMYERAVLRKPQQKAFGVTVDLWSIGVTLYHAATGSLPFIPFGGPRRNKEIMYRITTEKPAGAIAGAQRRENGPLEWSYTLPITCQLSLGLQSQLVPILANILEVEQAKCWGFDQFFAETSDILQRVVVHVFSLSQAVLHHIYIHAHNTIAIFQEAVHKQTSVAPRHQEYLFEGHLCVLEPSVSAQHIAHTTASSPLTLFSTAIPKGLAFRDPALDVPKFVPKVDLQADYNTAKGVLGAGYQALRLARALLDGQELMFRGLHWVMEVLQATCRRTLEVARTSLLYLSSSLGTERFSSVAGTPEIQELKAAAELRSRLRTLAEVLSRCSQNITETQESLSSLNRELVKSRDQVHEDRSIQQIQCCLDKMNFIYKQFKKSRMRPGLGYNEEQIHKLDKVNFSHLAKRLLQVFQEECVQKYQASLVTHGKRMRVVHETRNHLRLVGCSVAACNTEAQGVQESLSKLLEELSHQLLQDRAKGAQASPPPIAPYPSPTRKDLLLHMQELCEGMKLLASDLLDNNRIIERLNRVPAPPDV

[10] = biological target: Interferon-induced, double-stranded RNA-activated protein kinase (Homo sapiens) (UniProt P19525); assay: Inhibition of PKR conserved Lys2 (DLKPSNIFLVDTK) in human PBMC at 0.1 uM
[11] = biological target: Serine/threonine-protein kinase 25 (Homo sapiens) (UniProt O00506); assay: Inhibition of YSK1 conserved Lys2 (DIKAANVLLSEQGDVK) in human PBMC at 1 uM
Serine/threonine-protein kinase 25 (Homo sapiens), sequence (O00506 whole entry, looked up): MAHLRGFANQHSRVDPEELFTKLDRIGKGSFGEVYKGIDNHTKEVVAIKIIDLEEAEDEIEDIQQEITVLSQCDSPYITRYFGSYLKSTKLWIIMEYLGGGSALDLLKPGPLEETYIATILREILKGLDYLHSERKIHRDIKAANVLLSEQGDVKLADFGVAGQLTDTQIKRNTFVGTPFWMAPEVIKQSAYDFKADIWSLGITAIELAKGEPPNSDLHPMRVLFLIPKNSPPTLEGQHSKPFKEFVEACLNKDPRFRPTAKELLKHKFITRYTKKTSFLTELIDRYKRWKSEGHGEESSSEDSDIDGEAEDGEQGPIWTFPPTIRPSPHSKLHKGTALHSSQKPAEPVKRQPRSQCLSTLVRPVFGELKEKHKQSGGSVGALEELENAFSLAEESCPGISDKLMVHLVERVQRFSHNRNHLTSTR

[12] = biological target: Serine/threonine-protein kinase Nek7 (Homo sapiens) (UniProt Q8TDX7); assay: Inhibition of NEK7 conserved Lys2 (DIKPANVFITATGVVK) in human PBMC at 0.1 uM
[13] = biological target: Ribosomal protein S6 kinase beta-2 (Homo sapiens) (UniProt Q9UBS0); assay: Inhibition of p70S6Kb ATP binding site (GGYGKVFQVR) in human PBMC at 1 uM
[14] = biological target: Serine/threonine-protein kinase B-raf (Homo sapiens) (UniProt P15056); assay: Inhibition of BRAF labeling at conserved Lys2 (DLKSNNIFLHEDLTVK) in human PBMC at 1 uM
Serine/threonine-protein kinase B-raf (Homo sapiens), sequence (P15056 whole entry): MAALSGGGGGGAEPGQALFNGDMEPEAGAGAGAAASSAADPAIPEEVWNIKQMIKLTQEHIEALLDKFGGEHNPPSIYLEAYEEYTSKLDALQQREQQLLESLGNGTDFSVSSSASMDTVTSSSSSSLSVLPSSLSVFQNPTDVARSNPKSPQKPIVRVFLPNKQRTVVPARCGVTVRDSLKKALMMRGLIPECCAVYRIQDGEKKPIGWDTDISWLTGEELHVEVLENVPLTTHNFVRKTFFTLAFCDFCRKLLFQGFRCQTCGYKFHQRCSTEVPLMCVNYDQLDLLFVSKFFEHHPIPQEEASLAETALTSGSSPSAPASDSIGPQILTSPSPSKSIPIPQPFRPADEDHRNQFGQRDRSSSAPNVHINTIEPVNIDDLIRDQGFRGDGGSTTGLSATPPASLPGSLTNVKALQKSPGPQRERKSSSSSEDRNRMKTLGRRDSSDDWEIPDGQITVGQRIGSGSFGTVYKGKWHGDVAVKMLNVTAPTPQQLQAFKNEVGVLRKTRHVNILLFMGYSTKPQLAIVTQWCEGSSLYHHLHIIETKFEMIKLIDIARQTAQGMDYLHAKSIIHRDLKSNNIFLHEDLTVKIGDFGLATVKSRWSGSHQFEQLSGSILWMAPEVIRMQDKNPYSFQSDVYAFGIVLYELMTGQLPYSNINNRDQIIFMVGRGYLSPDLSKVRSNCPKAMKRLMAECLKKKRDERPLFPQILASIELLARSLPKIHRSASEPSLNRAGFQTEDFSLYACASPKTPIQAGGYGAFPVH

[15] = biological target: Cyclin-dependent kinase 2 (Homo sapiens) (UniProt P24941); assay: Inhibition of CDK2 labeling at conserved Lys1 (LTGEVVALKK) in human PBMC at 0.1 uM
[16] = biological target: Kinase suppressor of Ras 1 (Homo sapiens) (UniProt Q8IVT5); assay: Inhibition of KSR1 activation Loop (SKNVFYDNGK) in human PBMC at 1 uM
Kinase suppressor of Ras 1 (Homo sapiens), sequence (Q8IVT5 whole entry): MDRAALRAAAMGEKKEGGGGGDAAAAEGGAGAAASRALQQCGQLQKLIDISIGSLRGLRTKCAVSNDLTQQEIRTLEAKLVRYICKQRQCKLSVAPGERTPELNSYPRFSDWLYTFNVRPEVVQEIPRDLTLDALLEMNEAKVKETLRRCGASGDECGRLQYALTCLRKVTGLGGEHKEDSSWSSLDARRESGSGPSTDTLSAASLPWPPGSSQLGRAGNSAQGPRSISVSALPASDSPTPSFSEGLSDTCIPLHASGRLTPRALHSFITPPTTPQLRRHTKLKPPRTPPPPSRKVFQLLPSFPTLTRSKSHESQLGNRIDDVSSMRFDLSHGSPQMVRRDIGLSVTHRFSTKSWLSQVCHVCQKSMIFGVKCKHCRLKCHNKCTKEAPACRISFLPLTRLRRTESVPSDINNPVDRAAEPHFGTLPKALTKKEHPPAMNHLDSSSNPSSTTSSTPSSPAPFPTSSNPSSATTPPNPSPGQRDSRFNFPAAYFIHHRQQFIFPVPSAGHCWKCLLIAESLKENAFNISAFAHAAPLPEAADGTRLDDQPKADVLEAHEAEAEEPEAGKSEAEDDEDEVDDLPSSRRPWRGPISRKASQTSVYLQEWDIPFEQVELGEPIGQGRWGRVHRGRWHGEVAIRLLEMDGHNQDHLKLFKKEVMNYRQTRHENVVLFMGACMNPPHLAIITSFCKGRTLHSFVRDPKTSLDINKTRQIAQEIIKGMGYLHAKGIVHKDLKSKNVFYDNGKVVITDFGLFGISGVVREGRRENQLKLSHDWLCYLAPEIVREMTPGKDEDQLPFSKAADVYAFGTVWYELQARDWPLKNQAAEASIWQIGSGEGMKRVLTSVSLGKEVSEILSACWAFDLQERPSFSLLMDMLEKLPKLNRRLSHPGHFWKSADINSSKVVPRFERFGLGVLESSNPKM

## CC(C)n1cc(-c2cc(-c3ccc(CN4CCOCC4)cc3)cnc2N)nn1
[1]
  inhibition: 8.7%
[2]
  inhibition: -10%
[3]
  inhibition: 11.3%
[4]
  inhibition: -7.8%
[5]
  inhibition: 29.6%
[6]
  inhibition: -0.9%
[7]
  inhibition: 23.2%
[8]
  inhibition: 1.3%
[9]
  inhibition: 11%
[10]
  inhibition: 13.7%
[11]
  inhibition: 9.9%
[12]
  inhibition: -4.8%
[13]
  inhibition: -7.8%
[14]
  inhibition: 11.4%
[15]
  inhibition: 23.4%
[16]
  inhibition: 20.1%
